Measured values reported in patent US11247965B2 (VenatoRx Pharmaceuticals, Inc., priority 2017, dated 2022).

Experiments:
[1] = test system: HBV replication in HepAD38 cells; assay: Anti-HBV activity in HepAD38 cells, extracellular HBV DNA by QPCR; type: cell-based, HBV (genotype D, serotype ayw); conditions: Hepatitis B virus, HePAD38, 168 h, read-out: Anti-HBV EC50, HepAD38 cells, extracellular HBV DNA by QPCR, 7 days of incubation
In short: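 HepAD38 cells (HepG2 with tet-repressible HBV genotype D genome) seeded overnight, tetracycline removed, then treated 7 days with compounds (half-log dilutions, 30 μM–10 nM; 1:200 from DMSO). Supernatant HBV DNA quantified by QPCR against standard curve; % inhibition vs vehicle, EC50 by 4-parameter fit.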

[2] = In vitro cytotoxicity, MTT cell viability assay in HepG2 cells; type: cell-based; conditions: human, Cytotoxicity CC50
In short: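 CC50 values reflect loss of HepG2 viability after a 7-day exposure at 37 °C, 5% CO2. After 3-4 h with MTT, solubilized formazan was quantified at 492 nm relative to vehicle wells.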

## O=C(Nc1ccc(F)c(F)c1)c1ccc(F)c(C(F)(F)C(=O)NCc2ccncc2)c1 [Example 51, 3-(1,1-difluoro-2-oxo-2-((pyridin-4-ylmethyl)amino)ethyl)-N-(3,4-difluorophenyl)-4-fluorobenzamide]
[1]
  EC50: < 5 µM
[2]
  CC50 at 7 days: > 30 µM

## CCCN(CCO)C(=O)C(F)(F)c1cc(C(=O)Nc2ccc(F)c(F)c2)ccc1F [Example 52, 3-(1,1-difluoro-2-((2-hydroxyethyl)(propyl)amino)-2-oxoethyl)-N-(3,4-difluorophenyl)-4-fluorobenzamide]
[1]
  EC50: 5 to 30 µM
[2]
  CC50 at 7 days: > 30 µM

## O=C(Nc1ccc(F)c(F)c1)c1ccc(F)c(C(F)(F)C(=O)NC[C@@H](O)CO)c1 [Example 53, (R)—N-(3,4-difluorophenyl)-3-(2-((2,3-dihydroxypropyl)amino)-1,1-difluoro-2-oxoethyl)-4-fluorobenzamide]
[1]
  EC50: < 5 µM
[2]
  CC50 at 7 days: > 30 µM

## O=C(Nc1ccc(F)c(F)c1)c1ccc(F)c(C(F)(F)C(=O)NC[C@H](O)CO)c1 [Example 54, (S)—N-(3,4-difluorophenyl)-3-(2-((2,3-dihydroxypropyl)amino)-1,1-difluoro-2-oxoethyl)-4-fluorobenzamide]
[1]
  EC50: < 5 µM
[2]
  CC50 at 7 days: > 30 µM

## CCN(CCO)C(=O)C(F)(F)c1cc(C(=O)Nc2ccc(F)c(F)c2)ccc1F [Example 55, N-(3,4-difluorophenyl)-3-(2-(ethyl(2-hydroxyethyl)amino)-1,1-difluoro-2-oxoethyl)-4-fluorobenzamide]
[1]
  EC50: 5 to 30 µM
[2]
  CC50 at 7 days: > 30 µM

## Cc1cc(NC(=O)c2ccc(Cl)c(C(F)(F)C(=O)N3CC[C@@H](O)[C@@H](O)C3)c2)ccc1F [Example 57, 4-chloro-3-(2-((3S,4R)-3,4-dihydroxypiperidin-1-yl)-1,1-difluoro-2-oxoethyl)-N-(4-fluoro-3-methylphenyl)benzamide]
[1]
  EC50: < 5 µM
[2]
  CC50 at 7 days: > 30 µM

## Cc1cc(NC(=O)c2ccc(Cl)c(C(F)(F)C(=O)N3CC[C@H](O)[C@H](O)C3)c2)ccc1F [Example 58, 4-chloro-3-(2-((3R,4S)-3,4-dihydroxypiperidin-1-yl)-1,1-difluoro-2-oxoethyl)-N-(4-fluoro-3-methylphenyl)benzamide]
[1]
  EC50: < 5 µM
[2]
  CC50 at 7 days: > 30 µM

## Cc1cc(NC(=O)c2csc(C(F)(F)C(=O)N3CCCC3)c2)ccc1F [Example 59, 5-(1,1-difluoro-2-oxo-2-(pyrrolidin-1-yl)ethyl)-N-(4-fluoro-3-methylphenyl)thiophene-3-carboxamide]
[1]
  EC50: < 5 µM
[2]
  CC50 at 7 days: > 30 µM

## NC(=O)c1cc(NC(=O)c2ccc(Cl)c(C(F)(F)C(=O)N3CCC(O)CC3)c2)ccc1F [Example 60, N-(3-carbamoyl-4-fluorophenyl)-4-chloro-3-(1,1-difluoro-2-(4-hydroxypiperidin-1-yl)-2-oxoethyl)benzamide]
[1]
  EC50: 5 to 30 µM
[2]
  CC50 at 7 days: > 30 µM

## COc1cc(NC(=O)c2ccc(Cl)c(C(F)(F)C(=O)N3CCC(O)CC3)c2)cc(F)c1F [Example 61, 4-chloro-3-(1,1-difluoro-2-(4-hydroxypiperidin-1-yl)-2-oxoethyl)-N-(3,4-difluoro-5-methoxyphenyl)benzamide]
[1]
  EC50: 5 to 30 µM
[2]
  CC50 at 7 days: > 30 µM

## Cc1cc(NC(=O)c2ccc(Br)c(C(F)(F)C(=O)N3CCC(O)CC3)c2)ccc1F [Example 62, 4-bromo-3-(1,1-difluoro-2-(4-hydroxypiperidin-1-yl)-2-oxoethyl)-N-(4-fluoro-3-methylphenyl)benzamide]
[1]
  EC50: < 5 µM
[2]
  CC50 at 7 days: > 30 µM

## Cc1cc(NC(=O)c2ccc(C(F)(F)C(=O)N3CCC(O)CC3)s2)ccc1F [Example 63, 5-(1,1-difluoro-2-(4-hydroxypiperidin-1-yl)-2-oxoethyl)-N-(4-fluoro-3-methylphenyl)thiophene-2-carboxamide]
[1]
  EC50: > 30 µM
[2]
  CC50 at 7 days: 5 to 30 µM

## COc1ccc(CNC(=O)C(F)(F)c2cc(C(=O)Nc3ccc(F)c(F)c3)ccc2F)c(OC)c1 [Example 64, N-(3,4-difluorophenyl)-3-(2-((2,4-dimethoxybenzyl)amino)-1,1-difluoro-2-oxoethyl)-4-fluorobenzamide]
[1]
  EC50: 5 to 30 µM
[2]
  CC50 at 7 days: 5 to 30 µM

## O=C(Nc1ccc(F)c(F)c1)c1ccc(F)c(C(F)(F)C(=O)NCc2ccc(O)cc2)c1 [Example 65, 3-(1,1-difluoro-2-((4-hydroxybenzyl)amino)-2-oxoethyl)-N-(3,4-difluorophenyl)-4-fluorobenzamide]
[1]
  EC50: 5 to 30 µM
[2]
  CC50 at 7 days: 5 to 30 µM

## O=C(Nc1ccc(F)c(F)c1)c1ccc(F)c(C(F)(F)C(=O)NCc2cccnc2)c1 [Example 66, 3-(1,1-difluoro-2-oxo-2-((pyridin-3-ylmethyl)amino)ethyl)-N-(3,4-difluorophenyl)-4-fluorobenzamide]
[1]
  EC50: 5 to 30 µM
[2]
  CC50 at 7 days: > 30 µM

## Cc1cc(NC(=O)c2cc(C(F)(F)C(=O)N3CCC(O)CC3)c(Cl)cc2C)ccc1F [Example 67, 4-chloro-5-(1,1-difluoro-2-(4-hydroxypiperidin-1-yl)-2-oxoethyl)-N-(4-fluoro-3-methylphenyl)-2-methylbenzamide]
[1]
  EC50: < 5 µM
[2]
  CC50 at 7 days: > 30 µM

## Cc1cc(NC(=O)c2ccc(F)c(C(F)(F)C(=O)NCc3nccs3)c2)ccc1F [Example 68, 3-(1,1-difluoro-2-oxo-2-((thiazol-2-ylmethyl)amino)ethyl)-4-fluoro-N-(4-fluoro-3-methylphenyl)benzamide]
[1]
  EC50: < 5 µM
[2]
  CC50 at 7 days: 5 to 30 µM

## Cc1cc(NC(=O)c2ccc(F)c(C(F)(F)C(=O)N3CCC(O)C(CO)C3)c2)ccc1F (stereo not shown) [Example 69, 3-(1,1-difluoro-2-(4-hydroxy-3-(hydroxymethyl)piperidin-1-yl)-2-oxoethyl)-4-fluoro-N-(4-fluoro-3-methylphenyl)benzamide]
[1]
  EC50: < 5 µM
[2]
  CC50 at 7 days: > 30 µM

## Cc1cc(NC(=O)c2ccc(F)c(C(F)(F)C(=O)N3CCC(C)(O)CC3)c2)ccc1F [Example 70, 3-(1,1-difluoro-2-(4-hydroxy-4-methylpiperidin-1-yl)-2-oxoethyl)-4-fluoro-N-(4-fluoro-3-methylphenyl)benzamide]
[1]
  EC50: < 5 µM
[2]
  CC50 at 7 days: 5 to 30 µM

## Cc1cc(NC(=O)c2ccc(F)c(C(F)(F)C(=O)N3CCC(O)CC3(C)C)c2)ccc1F (stereo not shown) [Example 71, 3-(1,1-difluoro-2-(4-hydroxy-2,2-dimethylpiperidin-1-yl)-2-oxoethyl)-4-fluoro-N-(4-fluoro-3-methylphenyl)benzamide]
[1]
  EC50: 5 to 30 µM
[2]
  CC50 at 7 days: > 30 µM

## Cc1cc(NC(=O)c2ccc(F)c(C(F)(F)C(=O)N3CCC(O)C(C)(C)C3)c2)ccc1F (stereo not shown) [Example 72]
[1]
  EC50: < 5 µM
[2]
  CC50 at 7 days: 5 to 30 µM

## Cc1cc(NC(=O)c2ccc(F)c(C(F)(F)C(=O)N3CCC(F)(F)C3)c2)ccc1F [Example 73, 3-(2-(3,3-difluoropyrrolidin-1-yl)-1,1-difluoro-2-oxoethyl)-4-fluoro-N-(4-fluoro-3-methylphenyl)benzamide]
[1]
  EC50: 5 to 30 µM
[2]
  CC50 at 7 days: 5 to 30 µM

## Cc1cc(NC(=O)c2ccc(Cl)c(C(F)(F)C(=O)N3CC=CCC3)c2)ccc1F [Example 74, 4-chloro-3-(2-(3,6-dihydropyridin-1(2H)-yl)-1,1-difluoro-2-oxoethyl)-N-(4-fluoro-3-methylphenyl)benzamide]
[1]
  EC50: < 5 µM
[2]
  CC50 at 7 days: 5 to 30 µM
